Data: publication PMC11456916, “A screen for cell envelope stress uncovers an inhibitor of prolipoprotein diacylglyceryl transferase, Lgt, in Escherichiacoli” (iScience, 2024)

System: 356 CRISPRi constructs in E. coli ΔtolC-pore
Test: CRISPRi collection fitness screen with sub-inhibitory compound
Assay type: cell-based
Settings: for Growth represented as mean colony biomass: 1μg/ml MAC0452936, 6ng/ml LolCDE-in-1, 250 ng/ml Vancomycin, 7 ng/ml CHIR090, n=4; for Growth, mean colony biomass (n=4): + 6ng/ml LolCDE-in-1
From the text: To that end, we screened the E. coli CRISPRi collection in the ΔtolC-pore genetic background with a sub-inhibitory concentration of MAC-0452936 and measured the fitness of all 356 CRISPRi mutants (Figure 4C and Data S4). […] To that end, we introduced either an arabinose inducible copy of lgt supplied on the pCHAP9231 plasmid[48] or the pBAD19s plasmid as a control into E. coli ΔtolC-pore and tested the potency of MAC-0452936 (Figure 4E). […] To test this hypothesis, we constructed E. coli ΔlgtΔtolC-pore with pCHAP9231[48] so that lgt expression was driven solely by arabinose from the plasmid.
For screens of the CRISPRi collection with MAC-0452936, the mobile CRISPRi collection was first conjugated into E. coli ΔtolC-pore as previously described.[30] The CRISPRi collection was then arrayed on solid agar at 1536 density using the Singer-ROTOR, such that each CRISPRi strain is arrayed in technical quadruplicate. […] The screens were conducted without CRISPRi induction, using just the 5–10% basal knockdown from the pFD152 CRISPRi plasmid. Following overnight growth, plates were imaged using high-resolution scanners (Epson Perfection v750), and colony biomass for each mutant was determined.

[1] = sub-inhibitory (¼ MIC) concentration, LB agar, basal knockdown

## Fc1ccc(COc2cccc(-c3[nH]ncc3-c3ccncc3)c2)cc1 [LolCDE-in-1]
gRNA accA
  Growth represented as mean colony biomass: 1.008
gRNA aceF
  Growth, mean colony biomass (n=4): 1.072
gRNA alaS
  Growth, mean colony biomass (n=4): 1.101
gRNA argS
  Growth, mean colony biomass (n=4): 1.113
gRNA asnS
  Growth, mean colony biomass (n=4): 1.091
gRNA bamA
  Growth, mean colony biomass (n=4): 1.074
gRNA bamD
  Growth, mean colony biomass (n=4): 0.9928
gRNA bioA
  Growth, mean colony biomass (n=4): 1.016
gRNA can
  Growth, mean colony biomass (n=4): 1.04
gRNA cca
  Growth represented as mean colony biomass: 1
gRNA coaA
  Growth represented as mean colony biomass: 1.117
gRNA csrA
  Growth, mean colony biomass (n=4): 0.5912
gRNA cydA
  Growth represented as mean colony biomass: 1.002
gRNA cydX
  Growth represented as mean colony biomass: 0.9564
gRNA dapD
  Growth represented as mean colony biomass: 0.9627
gRNA dapE
  Growth represented as mean colony biomass: 0.9407
gRNA der
  Growth represented as mean colony biomass: 0.9198
gRNA dfp
  Growth represented as mean colony biomass: 0.9029
gRNA dnaC
  Growth, mean colony biomass (n=4): 1.011
gRNA dnaE
  Growth represented as mean colony biomass: 1.003
gRNA dnaN
  Growth represented as mean colony biomass: 0.9294
gRNA dnaX
  Growth represented as mean colony biomass: 0.8532
gRNA dut
  Growth, mean colony biomass (n=4): 1.113
gRNA eno
  Growth represented as mean colony biomass: 1.0061
gRNA era
  Growth represented as mean colony biomass: 0.9669
gRNA fabA
  Growth represented as mean colony biomass: 0.9879
gRNA fabG
  Growth represented as mean colony biomass: 0.9717
gRNA fabI
  Growth represented as mean colony biomass: 0.9771
gRNA fdx
  Growth represented as mean colony biomass: 0.998
gRNA fldA
  Growth represented as mean colony biomass: 1.014
gRNA folA
  Growth, mean colony biomass (n=4): 1.074
gRNA folB
  Growth represented as mean colony biomass: 1.004
gRNA folC
  Growth, mean colony biomass (n=4): 0.9924
gRNA folE
  Growth represented as mean colony biomass: 1.028
gRNA folP
  Growth represented as mean colony biomass: 1.013
gRNA frr
  Growth represented as mean colony biomass: 0.8456
gRNA ftsA
  Growth, mean colony biomass (n=4): 0.866
gRNA gapA
  Growth represented as mean colony biomass: 0.9875
gRNA glmS
  Growth, mean colony biomass (n=4): 1.023
gRNA glmU
  Growth represented as mean colony biomass: 0.9948
gRNA gltX
  Growth represented as mean colony biomass: 1.01
gRNA glyA
  Growth, mean colony biomass (n=4): 0.9609
gRNA groS
  Growth represented as mean colony biomass: 0.8911
gRNA grpE
  Growth represented as mean colony biomass: 0.9325
gRNA guaA
  Growth represented as mean colony biomass: 1.005
gRNA hemD
  Growth, mean colony biomass (n=4): 1.064
gRNA hemG
  Growth represented as mean colony biomass: 0.9487
gRNA hemH
  Growth represented as mean colony biomass: 0.9202
gRNA hemL
  Growth represented as mean colony biomass: 0.9936
gRNA higA
  Growth represented as mean colony biomass: 0.9523
gRNA hisS
  Growth represented as mean colony biomass: 0.9867
gRNA holD
  Growth represented as mean colony biomass: 1.037
gRNA hscA
  Growth represented as mean colony biomass: 1.068
gRNA infA
  Growth, mean colony biomass (n=4): 1.13
gRNA infC
  Growth represented as mean colony biomass: 0.9943
gRNA iscU
  Growth represented as mean colony biomass: 0.9298
gRNA ispB
  Growth represented as mean colony biomass: 0.9724
gRNA ispF
  Growth represented as mean colony biomass: 0.9965
gRNA leuS
  Growth, mean colony biomass (n=4): 1.148
gRNA lexA
  Growth, mean colony biomass (n=4): 0.4661
gRNA lolC
  Growth represented as mean colony biomass: 0.5845
gRNA lptA
  Growth, mean colony biomass (n=4): 1.047
gRNA lptB
  Growth, mean colony biomass (n=4): 0.9337
gRNA lptC
  Growth represented as mean colony biomass: 0.8997
gRNA lptE
  Growth represented as mean colony biomass: 0.9982
gRNA lptF
  Growth represented as mean colony biomass: 0.9678
gRNA lptG
  Growth represented as mean colony biomass: 1.0135
gRNA lpxC
  Growth represented as mean colony biomass: 0.9296
gRNA lpxD
  Growth represented as mean colony biomass: 0.9894
gRNA mnmA
  Growth, mean colony biomass (n=4): 1.137
gRNA mrdB
  Growth, mean colony biomass (n=4): 0.9351
gRNA mreB
  Growth represented as mean colony biomass: 0.9708
gRNA mreC
  Growth represented as mean colony biomass: 0.8551
gRNA msbA
  Growth, mean colony biomass (n=4): 1.057
gRNA mukF
  Growth, mean colony biomass (n=4): 0.8694
gRNA murB
  Growth represented as mean colony biomass: 1.046
gRNA murC
  Growth represented as mean colony biomass: 0.881
gRNA murI
  Growth, mean colony biomass (n=4): 0.5015
gRNA nadK
  Growth, mean colony biomass (n=4): 1.043
gRNA nusB
  Growth represented as mean colony biomass: 0.9929
gRNA plsB
  Growth represented as mean colony biomass: 0.8854
gRNA prmC
  Growth, mean colony biomass (n=4): 1.031
gRNA proS
  Growth represented as mean colony biomass: 1.0017
gRNA psd
  Growth, mean colony biomass (n=4): 1.234
gRNA pssA
  Growth, mean colony biomass (n=4): 0.9781
gRNA ptsI
  Growth, mean colony biomass (n=4): 1.151
gRNA racR
  Growth represented as mean colony biomass: 0.9577
gRNA rho
  Growth, mean colony biomass (n=4): 1.25
gRNA ribA
  Growth represented as mean colony biomass: 0.9663
gRNA ribC
  Growth represented as mean colony biomass: 0.899
gRNA ribD
  Growth, mean colony biomass (n=4): 1.034
gRNA ribF
  Growth represented as mean colony biomass: 0.9681
gRNA rimM
  Growth represented as mean colony biomass: 1.015
gRNA rluD
  Growth represented as mean colony biomass: 1.0361
gRNA rne
  Growth, mean colony biomass (n=4): 1.086
gRNA rpe
  Growth represented as mean colony biomass: 1.032
gRNA rplA
  Growth, mean colony biomass (n=4): 1.044
gRNA rplD
  Growth represented as mean colony biomass: 0.9769
gRNA rplE
  Growth represented as mean colony biomass: 0.973
gRNA rplJ
  Growth represented as mean colony biomass: 0.9047
gRNA rplO
  Growth represented as mean colony biomass: 0.9645
gRNA rplP
  Growth, mean colony biomass (n=4): 1.111
gRNA rplQ
  Growth represented as mean colony biomass: 1.063
gRNA rplS
  Growth represented as mean colony biomass: 0.9823
gRNA rplV
  Growth, mean colony biomass (n=4): 1.159
gRNA rplX
  Growth, mean colony biomass (n=4): 1.003
gRNA rplY
  Growth represented as mean colony biomass: 1.022
gRNA rpmC
  Growth, mean colony biomass (n=4): 1.247
gRNA rpmH
  Growth represented as mean colony biomass: 0.9499
gRNA rpmI
  Growth represented as mean colony biomass: 0.8822
gRNA rpoC
  Growth, mean colony biomass (n=4): 0.9718
gRNA rpoE
  Growth, mean colony biomass (n=4): 1.012
gRNA rpoH
  Growth represented as mean colony biomass: 1.025
gRNA rpsC
  Growth, mean colony biomass (n=4): 0.9823
gRNA rpsD
  Growth, mean colony biomass (n=4): 1.397
gRNA rpsE
  Growth represented as mean colony biomass: 1.159
gRNA rpsF
  Growth represented as mean colony biomass: 1.092
gRNA rpsG
  Growth, mean colony biomass (n=4): 0.9387
gRNA rpsH
  Growth represented as mean colony biomass: 1.028
gRNA rpsK
  Growth, mean colony biomass (n=4): 1.066
gRNA rpsL
  Growth, mean colony biomass (n=4): 0.9811
gRNA rpsM
  Growth, mean colony biomass (n=4): 1.056
gRNA rpsR
  Growth, mean colony biomass (n=4): 1.049
gRNA rpsT
  Growth, mean colony biomass (n=4): 1.1909
gRNA rsgA
  Growth represented as mean colony biomass: 0.9518
gRNA safA
  Growth represented as mean colony biomass: 0.9369
gRNA secA
  Growth, mean colony biomass (n=4): 1.053
gRNA secY
  Growth represented as mean colony biomass: 1.019
gRNA serS
  Growth represented as mean colony biomass: 1.011
gRNA ssb
  Growth represented as mean colony biomass: 1.001
gRNA sucA
  Growth represented as mean colony biomass: 0.955
gRNA suhB
  Growth, mean colony biomass (n=4): 0.9525
gRNA tilS
  Growth represented as mean colony biomass: 0.9992
gRNA tonB
  Growth represented as mean colony biomass: 0.9792
gRNA trmD
  Growth represented as mean colony biomass: 0.9503
gRNA tsaB
  Growth represented as mean colony biomass: 1.056
gRNA tsaD
  Growth represented as mean colony biomass: 0.9679
gRNA tsaE
  Growth, mean colony biomass (n=4): 1
gRNA tsf
  Growth represented as mean colony biomass: 1.027
gRNA tusE
  Growth represented as mean colony biomass: 1.013
gRNA tyrS
  Growth represented as mean colony biomass: 1.017
gRNA ubiB
  Growth represented as mean colony biomass: 0.9814
gRNA ubiD
  Growth represented as mean colony biomass: 0.9742
gRNA waaA
  Growth, mean colony biomass (n=4): 1.024
gRNA ydaS
  Growth represented as mean colony biomass: 0.9646
gRNA ydcD
  Growth represented as mean colony biomass: 0.9635
gRNA ydhL
  Growth represented as mean colony biomass: 0.9757
gRNA yedN
  Growth, mean colony biomass (n=4): 1.025
gRNA yejM
  Growth represented as mean colony biomass: 1.046
gRNA yffS
  Growth represented as mean colony biomass: 1.013
gRNA ygeF
  Growth represented as mean colony biomass: 0.9624
gRNA ygeN
  Growth, mean colony biomass (n=4): 1.008
gRNA yidC
  Growth represented as mean colony biomass: 0.8393
gRNA ymfE
  Growth represented as mean colony biomass: 0.903
gRNA ymiB
  Growth represented as mean colony biomass: 0.9243
gRNA yqeL
  Growth, mean colony biomass (n=4): 1.1914
gRNA yqgF
  Growth represented as mean colony biomass: 0.9509
gRNA zipA
  Growth, mean colony biomass (n=4): 1.134
[1]
  growth defect of CRISPRi strains for the compound's molecular target (LolCDE complex and LpxC, respectively): strongest growth defect
  growth defect of the lgt CRISPRi mutant in the presence of compound: did not demonstrate a growth defect
